Publication PMC10046369, “Low-Affinity/High-Selectivity Dopamine Transport Inhibition Sufficient to Rescue Cognitive Functions in the Aging Rat” (Biomolecules, 2023)

Legend:
PKNB(M.tuberculosis) = PKNB(M.tuberculosis) (Mycobacterium tuberculosis, UniProt P9WI81); assay: biochemical; parameters: KINOMEscan competition binding panel, per cent of control; settings: read-out: %Ctrl @ 2800nM
PFPK5(P.falciparum) = target: T1, PFPK5(P.falciparum) (Plasmodium falciparum, UniProt P61075); assay: biochemical; parameters: KINOMEscan competition binding panel, per cent of control; settings: read-out: %Ctrl @ 2800nM
T1 construct: gene CRK2
T1 sequence (P61075 whole entry): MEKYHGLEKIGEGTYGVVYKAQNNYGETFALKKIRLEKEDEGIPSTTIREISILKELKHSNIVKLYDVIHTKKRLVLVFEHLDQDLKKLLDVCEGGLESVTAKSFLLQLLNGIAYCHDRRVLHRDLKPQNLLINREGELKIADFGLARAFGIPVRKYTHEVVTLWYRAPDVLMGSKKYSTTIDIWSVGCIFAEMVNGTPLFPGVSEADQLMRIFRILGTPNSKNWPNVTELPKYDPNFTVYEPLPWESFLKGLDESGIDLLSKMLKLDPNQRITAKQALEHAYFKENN

MCH1 (h) = target: T2, MCH1 (h) (Homo sapiens, UniProt Q99705); assay: cell-based; parameters: functional GPCR antagonist screen (Eurofins Cerep), percent inhibition of control agonist response; settings: antagonist effect, against control agonist; read-out: % Inhibition of Control Agonist Response, Mean
T2 construct: gene MCHR1

LPA2 (h) = target: T3, LPA2 (h) (Homo sapiens, UniProt Q9HBW0); assay: cell-based; parameters: functional GPCR antagonist screen (Eurofins Cerep), percent inhibition of control agonist response; settings: antagonist effect, against control agonist; read-out: % Inhibition of Control Agonist Response, Mean
T3 construct: gene LPAR2

MT2 (ML1B) (h) = target: T4, MT2 (ML1B) (h) (Homo sapiens, UniProt P49286); assay: cell-based; parameters: functional GPCR antagonist screen (Eurofins Cerep), percent inhibition of control agonist response; settings: antagonist effect, against control agonist; read-out: % Inhibition of Control Agonist Response, Mean
T4 construct: gene MTNR1B
T4 sequence (P49286 whole entry): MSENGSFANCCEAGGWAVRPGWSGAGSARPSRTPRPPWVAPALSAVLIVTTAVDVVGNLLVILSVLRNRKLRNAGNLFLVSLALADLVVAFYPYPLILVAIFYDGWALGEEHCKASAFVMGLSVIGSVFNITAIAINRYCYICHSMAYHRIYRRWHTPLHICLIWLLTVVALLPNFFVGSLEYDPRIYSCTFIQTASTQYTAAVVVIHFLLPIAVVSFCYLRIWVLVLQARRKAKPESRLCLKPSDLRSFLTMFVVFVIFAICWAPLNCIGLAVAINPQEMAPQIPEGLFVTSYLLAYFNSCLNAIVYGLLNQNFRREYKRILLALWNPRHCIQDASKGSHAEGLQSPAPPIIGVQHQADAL

NK3 (h) = target: T5, NK3 (h) (Homo sapiens, UniProt P29371); assay: cell-based; parameters: functional GPCR antagonist screen (Eurofins Cerep), percent inhibition of control agonist response; settings: antagonist effect, against control agonist; read-out: % Inhibition of Control Agonist Response, Mean
T5 construct: gene TACR3

EP2 (h) = target: T6, EP2 (h) (Homo sapiens, UniProt P43116); assay: cell-based; parameters: functional GPCR antagonist screen (Eurofins Cerep), percent inhibition of control agonist response; settings: antagonist effect, against control agonist; read-out: % Inhibition of Control Agonist Response, Mean
T6 construct: gene PTGER2
T6 sequence (P43116 whole entry): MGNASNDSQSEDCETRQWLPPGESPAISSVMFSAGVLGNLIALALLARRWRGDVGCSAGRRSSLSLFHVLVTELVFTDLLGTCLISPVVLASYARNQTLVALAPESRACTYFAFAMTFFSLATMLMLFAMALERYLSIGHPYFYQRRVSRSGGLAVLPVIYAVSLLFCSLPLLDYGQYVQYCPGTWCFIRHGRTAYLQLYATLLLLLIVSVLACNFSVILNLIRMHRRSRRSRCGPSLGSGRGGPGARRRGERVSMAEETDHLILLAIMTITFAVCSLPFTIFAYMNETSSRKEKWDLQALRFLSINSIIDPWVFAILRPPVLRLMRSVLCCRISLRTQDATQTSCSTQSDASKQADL

MRGX2 / MGRPLX2 (h) = target: T7, MRGX2 / MGRPLX2 (h) (Homo sapiens, UniProt Q96LB1); assay: cell-based; parameters: functional GPCR antagonist screen (Eurofins Cerep), percent inhibition of control agonist response; settings: antagonist effect, against control agonist; read-out: % Inhibition of Control Agonist Response, Mean
T7 construct: gene MRGPRX2

NK2 (h) = target: T8, NK2 (h) (Homo sapiens, UniProt P21452); assay: cell-based; parameters: functional GPCR antagonist screen (Eurofins Cerep), percent inhibition of control agonist response; settings: antagonist effect, against control agonist; read-out: % Inhibition of Control Agonist Response, Mean
T8 construct: gene TACR2
T8 sequence (P21452 whole entry): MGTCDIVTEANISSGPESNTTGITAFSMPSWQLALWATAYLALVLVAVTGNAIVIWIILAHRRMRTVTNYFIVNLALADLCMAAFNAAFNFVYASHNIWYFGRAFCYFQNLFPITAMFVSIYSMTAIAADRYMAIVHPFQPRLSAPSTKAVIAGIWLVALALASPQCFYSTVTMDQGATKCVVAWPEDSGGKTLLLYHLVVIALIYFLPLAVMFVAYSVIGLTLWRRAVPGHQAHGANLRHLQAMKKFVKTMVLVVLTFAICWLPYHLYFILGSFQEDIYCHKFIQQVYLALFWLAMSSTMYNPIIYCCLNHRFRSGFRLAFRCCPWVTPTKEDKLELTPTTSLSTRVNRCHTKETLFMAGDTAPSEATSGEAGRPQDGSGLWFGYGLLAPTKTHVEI

NOP (h) (ORL1) = target: T9, NOP (h) (ORL1) (Homo sapiens, UniProt P41146); assay: cell-based; parameters: functional GPCR antagonist screen (Eurofins Cerep), percent inhibition of control agonist response; settings: antagonist effect, against control agonist; read-out: % Inhibition of Control Agonist Response, Mean
T9 construct: gene OPRL1
T9 sequence (P41146 whole entry): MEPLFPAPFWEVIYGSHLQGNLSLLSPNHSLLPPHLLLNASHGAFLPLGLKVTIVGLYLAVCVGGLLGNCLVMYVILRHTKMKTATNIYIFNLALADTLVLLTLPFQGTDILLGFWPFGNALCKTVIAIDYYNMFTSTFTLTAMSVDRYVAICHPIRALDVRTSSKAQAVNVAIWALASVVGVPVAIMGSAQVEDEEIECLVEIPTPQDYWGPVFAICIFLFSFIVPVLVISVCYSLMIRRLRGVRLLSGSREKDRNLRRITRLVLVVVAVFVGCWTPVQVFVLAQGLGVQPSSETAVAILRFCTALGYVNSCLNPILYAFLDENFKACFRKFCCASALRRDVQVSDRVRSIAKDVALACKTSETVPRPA

PK2 (h) = target: T10, PK2 (h) (Homo sapiens, UniProt Q8NFJ6); assay: cell-based; parameters: functional GPCR antagonist screen (Eurofins Cerep), percent inhibition of control agonist response; settings: antagonist effect, against control agonist; read-out: % Inhibition of Control Agonist Response, Mean
T10 construct: gene PROKR2

MT1 (ML1A) (h) = target: T11, MT1 (ML1A) (h) (Homo sapiens, UniProt P48039); assay: cell-based; parameters: functional GPCR antagonist screen (Eurofins Cerep), percent inhibition of control agonist response; settings: antagonist effect, against control agonist; read-out: % Inhibition of Control Agonist Response, Mean
T11 construct: gene MTNR1A
T11 sequence (P48039 whole entry): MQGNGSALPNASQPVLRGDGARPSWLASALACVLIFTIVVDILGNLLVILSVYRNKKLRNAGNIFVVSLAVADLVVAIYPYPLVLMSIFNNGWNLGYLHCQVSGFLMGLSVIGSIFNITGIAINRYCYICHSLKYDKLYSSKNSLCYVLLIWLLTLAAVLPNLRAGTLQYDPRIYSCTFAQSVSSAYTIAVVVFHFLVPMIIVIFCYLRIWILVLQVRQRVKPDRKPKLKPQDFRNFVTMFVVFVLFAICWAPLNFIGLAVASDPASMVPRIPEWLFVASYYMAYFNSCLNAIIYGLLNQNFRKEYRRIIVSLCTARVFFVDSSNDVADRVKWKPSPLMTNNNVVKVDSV

LPA3 (h) = target: T12, LPA3 (h) (Homo sapiens, UniProt Q9UBY5); assay: cell-based; parameters: functional GPCR antagonist screen (Eurofins Cerep), percent inhibition of control agonist response; settings: antagonist effect, against control agonist; read-out: % Inhibition of Control Agonist Response, Mean
T12 construct: gene LPAR3
T12 sequence (Q9UBY5 whole entry): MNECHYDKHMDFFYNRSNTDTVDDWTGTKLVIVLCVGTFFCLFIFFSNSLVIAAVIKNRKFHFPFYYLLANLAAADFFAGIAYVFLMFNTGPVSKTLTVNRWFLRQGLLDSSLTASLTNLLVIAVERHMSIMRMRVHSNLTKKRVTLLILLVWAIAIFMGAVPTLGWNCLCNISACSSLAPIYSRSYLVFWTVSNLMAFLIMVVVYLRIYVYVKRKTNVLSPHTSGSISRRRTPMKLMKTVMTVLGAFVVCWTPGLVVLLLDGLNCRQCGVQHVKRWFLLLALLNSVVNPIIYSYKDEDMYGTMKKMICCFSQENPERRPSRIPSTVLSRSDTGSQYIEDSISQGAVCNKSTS

TP (TXA2/PGH2) (h) = target: T13, TP (TXA2/PGH2) (h) (Homo sapiens, UniProt P21731); assay: cell-based; parameters: functional GPCR antagonist screen (Eurofins Cerep), percent inhibition of control agonist response; settings: antagonist effect, against control agonist; read-out: % Inhibition of Control Agonist Response, Mean
T13 construct: gene TBXA2R
T13 sequence (P21731 whole entry): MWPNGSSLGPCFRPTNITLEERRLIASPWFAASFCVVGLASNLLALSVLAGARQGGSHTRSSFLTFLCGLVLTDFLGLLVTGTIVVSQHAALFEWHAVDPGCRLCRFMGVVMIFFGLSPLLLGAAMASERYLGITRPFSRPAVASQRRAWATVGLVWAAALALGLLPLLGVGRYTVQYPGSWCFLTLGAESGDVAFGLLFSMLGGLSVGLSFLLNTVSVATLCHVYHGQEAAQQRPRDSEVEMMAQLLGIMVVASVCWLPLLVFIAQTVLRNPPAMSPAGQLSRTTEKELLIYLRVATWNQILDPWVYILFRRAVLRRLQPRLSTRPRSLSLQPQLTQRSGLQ

δ (DOP) (h) = target: T14, δ (DOP) (h) (Homo sapiens, UniProt P41143); assay: cell-based; parameters: functional GPCR antagonist screen (Eurofins Cerep), percent inhibition of control agonist response; settings: antagonist effect, against control agonist; read-out: % Inhibition of Control Agonist Response, Mean
T14 construct: gene OPRD1

MC4 (h) = target: T15, MC4 (h) (Homo sapiens, UniProt P32245); assay: cell-based; parameters: functional GPCR antagonist screen (Eurofins Cerep), percent inhibition of control agonist response; settings: antagonist effect, against control agonist; read-out: % Inhibition of Control Agonist Response, Mean
T15 construct: gene MC4R

MC3 (h) = target: T16, MC3 (h) (Homo sapiens, UniProt P41968); assay: cell-based; parameters: functional GPCR antagonist screen (Eurofins Cerep), percent inhibition of control agonist response; settings: antagonist effect, against control agonist; read-out: % Inhibition of Control Agonist Response, Mean
T16 construct: gene MC3R
T16 sequence (P41968 whole entry): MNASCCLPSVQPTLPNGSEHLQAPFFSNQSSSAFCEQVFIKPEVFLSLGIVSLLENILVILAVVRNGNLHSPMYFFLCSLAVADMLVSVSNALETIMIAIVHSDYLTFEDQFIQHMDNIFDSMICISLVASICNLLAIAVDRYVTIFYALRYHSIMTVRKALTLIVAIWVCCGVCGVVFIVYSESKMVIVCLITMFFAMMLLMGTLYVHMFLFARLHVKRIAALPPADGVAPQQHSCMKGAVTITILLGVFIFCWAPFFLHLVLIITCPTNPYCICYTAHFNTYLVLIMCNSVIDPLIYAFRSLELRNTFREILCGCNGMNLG

P2Y1 (h) = target: T17, P2Y1 (h) (Homo sapiens, UniProt P47900); assay: cell-based; parameters: functional GPCR antagonist screen (Eurofins Cerep), percent inhibition of control agonist response; settings: antagonist effect, against control agonist; read-out: % Inhibition of Control Agonist Response, Mean
T17 construct: gene P2RY1
T17 sequence (P47900 whole entry): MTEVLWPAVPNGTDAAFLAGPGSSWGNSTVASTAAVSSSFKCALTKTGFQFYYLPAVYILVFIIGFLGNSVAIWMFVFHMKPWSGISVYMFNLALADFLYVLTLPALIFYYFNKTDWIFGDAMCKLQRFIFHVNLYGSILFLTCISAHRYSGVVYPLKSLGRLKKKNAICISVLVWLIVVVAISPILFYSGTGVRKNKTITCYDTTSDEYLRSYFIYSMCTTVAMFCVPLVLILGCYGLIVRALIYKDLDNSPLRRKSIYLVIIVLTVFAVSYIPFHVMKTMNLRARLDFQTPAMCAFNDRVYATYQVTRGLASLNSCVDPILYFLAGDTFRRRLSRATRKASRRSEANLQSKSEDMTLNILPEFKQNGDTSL

EP3 (h) = target: T18, EP3 (h) (Homo sapiens, UniProt P43115); assay: cell-based; parameters: functional GPCR antagonist screen (Eurofins Cerep), percent inhibition of control agonist response; settings: antagonist effect, against control agonist; read-out: % Inhibition of Control Agonist Response, Mean
T18 construct: gene PTGER3

M2 (h) = target: T19, M2 (h) (Homo sapiens, UniProt P08172); assay: cell-based; parameters: functional GPCR antagonist screen (Eurofins Cerep), percent inhibition of control agonist response; settings: antagonist effect, against control agonist; read-out: % Inhibition of Control Agonist Response, Mean
T19 construct: gene CHRM2

S1P4 (h) = target: T20, S1P4 (h) (Homo sapiens, UniProt O95977); assay: cell-based; parameters: functional GPCR antagonist screen (Eurofins Cerep), percent inhibition of control agonist response; settings: antagonist effect, against control agonist; read-out: % Inhibition of Control Agonist Response, Mean
T20 construct: gene S1PR4
T20 sequence (O95977 whole entry): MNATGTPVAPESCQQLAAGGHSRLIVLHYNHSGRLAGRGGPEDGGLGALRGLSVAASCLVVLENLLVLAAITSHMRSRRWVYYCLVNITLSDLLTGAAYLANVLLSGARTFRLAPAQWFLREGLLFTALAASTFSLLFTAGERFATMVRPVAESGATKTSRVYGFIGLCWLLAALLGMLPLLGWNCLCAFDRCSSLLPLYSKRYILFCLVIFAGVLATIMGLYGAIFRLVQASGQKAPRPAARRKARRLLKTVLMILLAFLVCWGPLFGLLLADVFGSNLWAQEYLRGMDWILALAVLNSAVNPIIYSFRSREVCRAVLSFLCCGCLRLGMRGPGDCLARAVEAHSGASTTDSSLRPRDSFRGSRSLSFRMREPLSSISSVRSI

μ (MOP) (h) = target: T21, μ (MOP) (h) (Homo sapiens, UniProt P35372); assay: cell-based; parameters: functional GPCR antagonist screen (Eurofins Cerep), percent inhibition of control agonist response; settings: antagonist effect, against control agonist; read-out: % Inhibition of Control Agonist Response, Mean
T21 construct: gene OPRM1
T21 sequence (P35372 whole entry): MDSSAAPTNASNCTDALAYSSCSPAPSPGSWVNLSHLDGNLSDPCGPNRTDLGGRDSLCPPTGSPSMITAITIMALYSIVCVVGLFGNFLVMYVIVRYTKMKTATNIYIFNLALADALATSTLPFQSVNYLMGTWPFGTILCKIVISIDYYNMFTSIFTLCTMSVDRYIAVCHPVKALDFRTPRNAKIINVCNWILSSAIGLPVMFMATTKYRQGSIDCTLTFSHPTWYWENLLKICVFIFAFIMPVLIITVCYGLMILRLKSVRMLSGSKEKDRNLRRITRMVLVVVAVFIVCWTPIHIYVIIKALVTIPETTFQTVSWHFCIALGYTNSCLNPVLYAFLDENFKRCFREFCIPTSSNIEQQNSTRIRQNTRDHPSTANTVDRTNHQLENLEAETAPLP

MrgD (h) = target: T22, MrgD (h) (Homo sapiens, UniProt Q8TDS7); assay: cell-based; parameters: functional GPCR antagonist screen (Eurofins Cerep), percent inhibition of control agonist response; settings: antagonist effect, against control agonist; read-out: % Inhibition of Control Agonist Response, Mean
T22 construct: gene MRGPRD

NPS (h) = target: T23, NPS (h) (Homo sapiens, UniProt Q6W5P4); assay: cell-based; parameters: functional GPCR antagonist screen (Eurofins Cerep), percent inhibition of control agonist response; settings: antagonist effect, against control agonist; read-out: % Inhibition of Control Agonist Response, Mean
T23 construct: gene NPSR1
T23 sequence (Q6W5P4 whole entry): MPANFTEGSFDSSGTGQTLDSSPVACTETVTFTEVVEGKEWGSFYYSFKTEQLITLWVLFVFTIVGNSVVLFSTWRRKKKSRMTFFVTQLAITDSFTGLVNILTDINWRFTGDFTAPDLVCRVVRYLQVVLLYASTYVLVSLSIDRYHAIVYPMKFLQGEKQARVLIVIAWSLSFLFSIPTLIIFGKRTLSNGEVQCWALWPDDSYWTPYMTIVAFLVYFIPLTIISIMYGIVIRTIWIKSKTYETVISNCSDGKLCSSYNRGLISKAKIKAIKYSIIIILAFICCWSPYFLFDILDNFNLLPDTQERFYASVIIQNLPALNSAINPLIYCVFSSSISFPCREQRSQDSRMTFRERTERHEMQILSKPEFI

Compound: [O-][S@@+](Cc1cncs1)C(c1ccccc1)c1ccccc1 [S-CE-123, (S)-5-((Benzhydrylsulfinyl)Methyl)Thiazole]
- remaining binding at 2.8 µM (PKNB(M.tuberculosis)): 96%
- remaining binding at 2.8 µM (PFPK5(P.falciparum)): 84%
- inhibition at 2.8 µM (MCH1 (h)): -0.9%
- inhibition at 2.8 µM (LPA2 (h)): -10.9%
- inhibition at 2.8 µM (MT2 (ML1B) (h)): 6.2%
- inhibition at 2.8 µM (NK3 (h)): -5.1%
- inhibition at 2.8 µM (EP2 (h)): 0.7%
- inhibition at 2.8 µM (MRGX2 / MGRPLX2 (h)): 7.1%
- inhibition at 2.8 µM (NK2 (h)): -0.8%
- inhibition at 2.8 µM (NOP (h) (ORL1)): 18.4%
- inhibition at 2.8 µM (PK2 (h)): 7.3%
- inhibition at 2.8 µM (MT1 (ML1A) (h)): 7.6%
- inhibition at 2.8 µM (LPA3 (h)): -34.4%
- inhibition at 2.8 µM (TP (TXA2/PGH2) (h)): 2.5%
- inhibition at 2.8 µM (δ (DOP) (h)): -2.8%
- inhibition at 2.8 µM (MC4 (h)): 2.3%
- inhibition at 2.8 µM (MC3 (h)): -7.8%
- inhibition at 2.8 µM (P2Y1 (h)): -6.7%
- inhibition at 2.8 µM (EP3 (h)): -30.8%
- inhibition at 2.8 µM (M2 (h)): -9.2%
- inhibition at 2.8 µM (S1P4 (h)): -14.6%
- inhibition at 2.8 µM (μ (MOP) (h)): 5%
- inhibition at 2.8 µM (MrgD (h)): 30%
- inhibition at 2.8 µM (NPS (h)): -14.3%
